Measurements reported in article PMC10518255, “A first-in-class pan-lysyl oxidase inhibitor impairs stromal remodeling and enhances gemcitabine response and survival in pancreatic cancer” (Nature Cancer, 2023).
Where “and” joins values, the source holds several entries; their conditions need not be identical. Equal values may be shown once. Read-outs that look alike come from different tables or passages of the source.

Columns and labels:
[1] = system: KPC CCs; test: 3D cell viability assay (MTS, collagen); type: cell-based, mouse; settings: for 3D cell viability (MTS assay): KPC CC, replicates
Description: (§1) The 3D cell viability assays were performed using cells embedded into polymerized collagen at 2.5 mg ml^−1. KPC CAFs and CCs were seeded at 10,000 cells per well in a 96-well plate. MTS solution (Promega) was added to the cells at a 1:20 dilution and cells were incubated at 37 °C for 1.5 h. Cell proliferation rates were measured by detecting the absorbance at 490 nm using a microplate reader and three biological repeats were performed.
(§2) Data presented as mean values +/− SD. f. […] Data presented as mean values +/− SD. […] Data presented as mean values +/− SD. […] Data presented as mean values +/− SD. Ordinary one-way ANOVA for multiple comparison test performed. Source data

[2] = system: KPC CAFs; test: 3D cell viability assay (MTS, collagen); type: cell-based, mouse; settings: for 3D cell viability (MTS assay): replicates
Description: as §1, §2

[3] = molecular target: T1, LOXL2 (Homo sapiens, UniProt Q9Y4K0); test: Time-dependent inhibition with pre-incubation 0-240 min (Fig. 2e); type: biochemical; settings: for remaining activity at 30 µM: log conc -4.52288; for remaining activity at 30 µM / remaining activity at 10 µM / remaining activity at 3.333 µM / remaining activity at 1.111 µM / remaining activity at 0.3704 µM / remaining activity at 0.12346 µM / remaining activity at 0.04115 µM / remaining activity at 0.013717 µM / remaining activity at 0.004572 µM / remaining activity at 0.001524 µM / remaining activity at 0.0005081 µM / remaining activity at 0.0001694 µM: read-out: LOXL2 specific activity; for remaining activity at 10 µM: log conc -5; for remaining activity at 3.333 µM: log conc -5.47712; for remaining activity at 1.111 µM: log conc -5.95424; for remaining activity at 0.3704 µM: log conc -6.43136; for remaining activity at 0.12346 µM: log conc -6.90849; for remaining activity at 0.04115 µM: log conc -7.38561; for remaining activity at 0.013717 µM: log conc -7.86273; for remaining activity at 0.004572 µM: log conc -8.33985; for remaining activity at 0.001524 µM: log conc -8.81697; for remaining activity at 0.0005081 µM: log conc -9.29409; for remaining activity at 0.0001694 µM: log conc -9.77121
T1 sequence (Q9Y4K0 26-774): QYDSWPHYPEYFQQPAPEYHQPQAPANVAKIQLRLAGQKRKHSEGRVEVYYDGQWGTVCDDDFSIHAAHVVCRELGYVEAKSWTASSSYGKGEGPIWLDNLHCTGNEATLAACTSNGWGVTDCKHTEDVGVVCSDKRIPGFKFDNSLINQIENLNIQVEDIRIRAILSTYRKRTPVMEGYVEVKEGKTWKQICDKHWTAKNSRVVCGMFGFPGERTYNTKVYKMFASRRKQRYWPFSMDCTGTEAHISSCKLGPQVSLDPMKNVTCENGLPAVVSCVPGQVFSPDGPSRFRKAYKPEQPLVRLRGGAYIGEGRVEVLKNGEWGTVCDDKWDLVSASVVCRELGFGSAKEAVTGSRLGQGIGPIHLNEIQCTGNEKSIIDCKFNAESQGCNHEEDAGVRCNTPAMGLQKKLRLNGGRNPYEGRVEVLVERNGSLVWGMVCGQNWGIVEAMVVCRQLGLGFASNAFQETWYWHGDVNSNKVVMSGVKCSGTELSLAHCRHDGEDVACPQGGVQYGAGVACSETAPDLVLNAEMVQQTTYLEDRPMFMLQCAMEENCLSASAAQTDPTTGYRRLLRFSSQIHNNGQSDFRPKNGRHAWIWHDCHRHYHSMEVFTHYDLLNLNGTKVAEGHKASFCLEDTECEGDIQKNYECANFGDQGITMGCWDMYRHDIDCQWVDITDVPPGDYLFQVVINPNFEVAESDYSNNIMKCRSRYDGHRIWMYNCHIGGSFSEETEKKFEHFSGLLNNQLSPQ
Description: Data are presented as mean ± s.d. […] Data presented as mean ± s.d. […] Source data TEXT PRINTED IN THE PICTURE: (b) PXS-5505: Recombinant DAO IC50 (nM): >30,000; Recombinant SSAO/VAP1 IC50 (nM): >30,000; Recombinant MAO-A IC50 (nM): >30,000; Recombinant MAO-B IC50 (nM): >30,000 | (f) PXS-5505: Fibroblast LOX IC50 (nM): 4,930; Recombinant LOXL-1 IC50 (nM): 1,590; Recombinant LOXL-2 IC50 (nM): 570; Recombinant LOXL-3 IC50 (nM): 1,800; Recombinant LOXL-4 IC50 (nM): 190
Similar to other fluoroallylamine-based amine oxidase inhibitors, the mode of inhibition is assumed to be a two-step mechanism (Fig. 2c), with PXS-5505 reacting with the unique LTQ cofactor found within the active site. The fluoroallylamine facilitates the formation of a covalent, irreversible bond. […] Furthermore, in jump dilution experiments, there is no significant recovery of activity following rapid dilution (LOXL1 (5 ± 5% recovery, n = 4), LOXL2 (7 ± 1.2% recovery, n = 3) and LOXL3 (11 ± 2% recovery, n = 3)).

## Cl.Cl.NC/C=C(\F)CS(=O)(=O)c1cccc2cccnc12.O [PXS-5505, (Z)-3-fluoro-4-(quinolin-8-ylsulfonyl)but-2-en-1-amine dihydrochloride monohydrate]
[1]; PXS-5505 0.3 (unit not given)
  3D cell viability (MTS assay): 101.864 and 94.0126
[1]; PXS-5505 3 (unit not given)
  3D cell viability (MTS assay): 104.713 and 92.4708
[1]; PXS-5505 30 (unit not given)
  3D cell viability (MTS assay): 96.3592 and 91.3434
[1]; PXS-5505 100 (unit not given)
  3D cell viability (MTS assay): 92.997 and 88.536
[1]; PXS-5505 300 (unit not given)
  3D cell viability (MTS assay): 102.736 and 92.2188 and 80.3582
[1]; KPC CCs, up to 300 µM
  effect on proliferation, 3D: nor did it show any effect on proliferation
[2]; PXS-5505 0.3 (unit not given)
  3D cell viability (MTS assay): 102.654 and 114.604 and 89.88
[2]; PXS-5505 3 (unit not given)
  3D cell viability (MTS assay): 96.8872 and 86.2796
[2]; PXS-5505 30 (unit not given)
  3D cell viability (MTS assay): 93.0804 and 86.6488
[2]; PXS-5505 100 (unit not given)
  3D cell viability (MTS assay): 93.525 and 85.922
[2]; PXS-5505 300 (unit not given)
  3D cell viability (MTS assay): 102.9 and 101.619 and 82.2294
[2]; up to 300 µM
  effect on proliferation, 3D: nor did it show any effect on proliferation
[3]; 0.25 h, pre-incubation 15 min
  remaining activity at 30 µM: 1.28%
  remaining activity at 10 µM: 4.38%
  remaining activity at 3.333 µM: 16%
  remaining activity at 1.111 µM: 38.5%
  remaining activity at 0.3704 µM: 64%
  remaining activity at 0.12346 µM: 86.7%
  remaining activity at 0.04115 µM: 93.6%
  remaining activity at 0.013717 µM: 96.4%
  remaining activity at 0.004572 µM: 99.2%
  remaining activity at 0.001524 µM: 98.4%
  remaining activity at 0.0005081 µM: 97.8%
  remaining activity at 0.0001694 µM: 102%
[3]; 0.5 h, pre-incubation 30 min
  remaining activity at 30 µM: -0.266%
  remaining activity at 10 µM: -0.0903%
  remaining activity at 3.333 µM: 4.21%
  remaining activity at 1.111 µM: 17.3%
  remaining activity at 0.3704 µM: 43.6%
  remaining activity at 0.12346 µM: 72.5%
  remaining activity at 0.04115 µM: 87.7%
  remaining activity at 0.013717 µM: 93.2%
  remaining activity at 0.004572 µM: 96.3%
  remaining activity at 0.001524 µM: 109%
  remaining activity at 0.0005081 µM: 99.4%
  remaining activity at 0.0001694 µM: 103%
[3]; 1 h, pre-incubation 60 min
  remaining activity at 30 µM: -0.646%
  remaining activity at 10 µM: 0.037%
  remaining activity at 3.333 µM: 1.01%
  remaining activity at 1.111 µM: 5.82%
  remaining activity at 0.3704 µM: 23.2%
  remaining activity at 0.12346 µM: 62.4%
  remaining activity at 0.04115 µM: 86.9%
  remaining activity at 0.013717 µM: 97.3%
  remaining activity at 0.004572 µM: 101%
  remaining activity at 0.001524 µM: 104%
  remaining activity at 0.0005081 µM: 104%
  remaining activity at 0.0001694 µM: 106%
[3]; 2 h, pre-incubation 120 min
  remaining activity at 30 µM: -0.278%
  remaining activity at 10 µM: 1.09%
  remaining activity at 3.333 µM: 1.27%
  remaining activity at 1.111 µM: 2.05%
  remaining activity at 0.3704 µM: 7.04%
  remaining activity at 0.12346 µM: 36.3%
  remaining activity at 0.04115 µM: 69.5%
  remaining activity at 0.013717 µM: 87.9%
  remaining activity at 0.004572 µM: 97.9%
  remaining activity at 0.001524 µM: 102%
  remaining activity at 0.0005081 µM: 102%
  remaining activity at 0.0001694 µM: 103%
[3]; 4 h, pre-incubation 240 min
  remaining activity at 30 µM: -0.548%
  remaining activity at 10 µM: 0.438%
  remaining activity at 3.333 µM: 0.0615%
  remaining activity at 1.111 µM: 0.566%
  remaining activity at 0.3704 µM: 1.17%
  remaining activity at 0.12346 µM: 14.1%
  remaining activity at 0.04115 µM: 45.6%
  remaining activity at 0.013717 µM: 71.8%
  remaining activity at 0.004572 µM: 91.6%
  remaining activity at 0.001524 µM: 95.6%
  remaining activity at 0.0005081 µM: 101%
  remaining activity at 0.0001694 µM: 102%
[3]; pre-incubation time 0–240 min
  time-dependent inhibition of LOXL2 specific activity: increased potency with increased pre-incubation time
